Laboratory results from publication PMC4026384, “Antibacterial Activity of THAM Trisphenylguanide against Methicillin-Resistant Staphylococcus aureus” (PLoS ONE, 2014).
Values after ≈ are worked out from the molar mass of the structure shown. “Also recorded” adds a separate entry of the source. Where two headings read alike, the source gives them in different places.

Experiments:
[1] = system: E. coli K91; assay: Bacterial viability assay; format: cell-based, Escherichia coli; details: one hour in PBS, CFU, ± SEM
Procedure: (§1) Supplementary file pone.0097742.s003.doc: Table S1 Bacterial viability assays. Bacteria were grown at 37°C to mid-log phase (OD600 ∼0.4). The bacteria were diluted to approximately 10^4 to 10^5 colony forming units (CFU) per milliliter and added to a solution of phosphate buffered saline (PBS, 16 mM phosphate, 0.14 M NaCl, pH 7.2) containing the compound at varied concentrations. Samples were incubated at 37°C for one hour and then plated on Luria Bertani (LB) agar at appropriate dilutions in PBS. The plates were incubated overnight at 37°C and colonies enumerated the following day. IC50s were calculated from graphs of CFU as a function of compound concentration. Chlorhexidine was used as a positive control. […] (DOC) Click here for additional data file.
(§2) Bacterial viability assays. Bacteria were grown at 37°C to mid-log phase (OD600 ~0.4). The bacteria were diluted to approximately 10^4 to 10^5 colony forming units (CFU) per milliliter and added to a solution of phosphate buffered saline (PBS, 16 mM phosphate, 0.14 M NaCl, pH 7.2) containing the compound at varied concentrations. Samples were incubated at 37°C for one hour and then plated on Luria Bertani (LB) agar at appropriate dilutions in PBS. The plates were incubated overnight at 37°C and colonies enumerated the following day. IC50s were calculated from graphs of CFU as a function of compound concentration. Chlorhexidine was used as a positive control.

[2] = system: P. aeruginosa PA01; assay: Bacterial viability assay; format: cell-based, Pseudomonas aeruginosa; details: one hour in PBS, CFU, ± SEM
Procedure: as §1, §2

[3] = system: HaCaT human keratinocytes; assay: Cell toxicity assay (MTS); format: cell-based; details: for CC50: MTS assay, concentration which killed 50% of the cells
Procedure: (§3) The HaCaT cell line was grown in Epilife medium (MEPI500Ca) with human keratinocyte growth supplement (Invitrogen, San Diego, CA). Both types of cells were harvested using Tryspin/EDTA and diluted to 1×10^5 cells per well in a 96-well plate. Ten concentrations covering five orders of magnitude were tested with six replicates per concentration. […] MTS/PMS solution (Promega, Madison, WI) was added to the wells and absorbance was measured at 490 nm two to four hours later. Data was analyzed using GraphPad Prism version 5.0 (GraphPad Software, La Jolla, CA) using a variable slope inhibition dose response curve.

[4] = system: human breast cancer cell line MDA-MB-231; assay: Cell toxicity assay (MTS); format: cell-based; details: MDA-231; for CC50: MTS assay, concentration which killed 50% of the cells
Procedure: as §3

[5] = system: E. faecalis V583; assay: Bacterial viability assay; format: cell-based, Enterococcus faecalis; details: one hour in PBS, CFU, ± SEM
Procedure: as §1, §2

[6] = system: E. faecalis MSU#10; assay: Bacterial viability assay; format: cell-based, Enterococcus faecalis; details: E. faecalis MSU#10, one hour in PBS, CFU, ± SEM, read-out: IC50
Procedure: as §1, §2

[7] = system: A. baumannii ATCC 19606; assay: Bacterial viability assay; format: cell-based, Acinetobacter baumannii; details: one hour in PBS, CFU, ± SEM
Procedure: as §1, §2

[8] = system: A. baumannii ATCC BAA1605; assay: Bacterial viability assay; format: cell-based, Acinetobacter baumannii; details: one hour in PBS, CFU, ± SEM
Procedure: as §1, §2

[9] = system: MRSA USA300; assay: Bacterial viability assay; format: cell-based, Staphylococcus aureus; details: one hour in PBS, CFU, ± SEM
Procedure: as §1, §2

[10] = system: S. aureus RN4220; assay: Bacterial viability assay; format: cell-based, Staphylococcus aureus; details: one hour in PBS, CFU, ± SEM
Procedure: (§4) Supplementary file pone.0097742.s003.doc: Table S1 Bacterial viability assays. Bacteria were grown at 37°C to mid-log phase (OD600 ∼0.4). The bacteria were diluted to approximately 10^4 to 10^5 colony forming units (CFU) per milliliter and added to a solution of phosphate buffered saline (PBS, 16 mM phosphate, 0.14 M NaCl, pH 7.2) containing the compound at varied concentrations. Samples were incubated at 37°C for one hour and then plated on Luria Bertani (LB) agar at appropriate dilutions in PBS. The plates were incubated overnight at 37°C and colonies enumerated the following day. IC50s were calculated from graphs of CFU as a function of compound concentration. Chlorhexidine was used as a positive control. Included are those guanide (G), biguanide (BG), phenylguanide (ΦG) compounds that had some antibacterial activity in an initial screen at 30 and 100 µM, as well as their and parent amines. Compounds synthesized from 1,4-butanediamine, 1,6-hexanediamine, trisethylaminomelamine, trisbutylaminomelamine, and the dendrimer PAMAM (G0) were not active against E. coli, P aeruginosa, or S. aureus so they were not tested against the remaining bacteria (data not shown). (DOC) Click here for additional data file.
as §4, with “Bacterial” for “Supplementary file pone.0097742.s003.doc: Table S1 Bacterial”, “~0.4).” for “∼0.4).”, “μM,” for “µM,”, “shown).” for “shown). (DOC) Click here for additional data file.”

[11] = Cell toxicity assay (MTS); format: cell-based, human; details: human, MTS assay, concentration which killed 50% of the cells
Procedure: as §3

[12] = system: MRSA; assay: Cytoplasmic leakage & bacteriolysis assay; format: cell-based, Staphylococcus aureus; details: 1× to 4×MIC, over the 3 hour period
Procedure: Bacteria were cultured to mid-log phase (OD600 ∼0.4) in LB media with shaking. Bacteria were then harvested and resuspended in PBS to a concentration of ∼10^8 CFU/mL. […] Bacteria were monitored over time for cytoplasmic leakage via A260 measurements and for cell viability. For A260 readings, sample aliquots were centrifuged for 5 min at 10,000×g at room temperature to remove cellular debris. Viability was monitored by determining the CFU/mL during the first 3 hours post treatment as described above for the kill curve assays.

[13] = system: MRSA strain LAC, USA300; assay: Minimum inhibitory concentration (microdilution); format: cell-based, Staphylococcus aureus; details: assay described in Material and Methods; controls of the MRSA leakage assay (Figure S2)
Procedure: Minimum inhibitory concentration (MIC) values were determined for those compounds showing the most antibacterial activity in the bacterial viability assays (see Supplemental Materials) against each of the strains of bacteria using a microdilution method in 96 well plates with LB media according to guidelines published by the British Society for Antimicrobial Chemotherapy. Minimum bactericidal concentrations (MBC) were determined by plating 10 µL and 100 µL from each well showing no signs of growth after overnight incubation of the MIC plates and determining the minimum concentration showing a 3-log reduction of viable bacteria. MIC and MBC were also determined in cation-adjusted Mueller-Hinton broth (Hardy Diagnostics, Santa Maria, CA) for some compounds and strains.

[14] = MDA-MB-231 breast cancer cells (ATCC HTB-26), MDA-231
[15] = Acinetobacter baumannii, ATCC19606, 1 h
[16] = Acinetobacter baumannii, ATCCBAA1605, 1 h

Compound	IC50 [1] [µM]	IC50 [2] [µM]	Relative to chlorhexidine (factor by which cytotoxicity was reduced) [3]	CC50 [3] [µg/mL]	Relative to chlorhexidine (factor by which cytotoxicity was reduced) [4]	CC50 [4] [µg/mL]	IC50 [5] [µM]	IC50 [6] [µM]	IC50 [7] [µM]	IC50 [8] [µM]	IC50 [9] [µM]	IC50 [10] [µM]	also measured
N=C(NCCCCN(CCCNC(=N)Nc1ccccc1)C(=N)Nc1ccccc1)Nc1ccccc1 [Spermidine-3ΦG]	3.2 ± 0.9	> 100	210	400 (≈ 801 µM)	170	430 (≈ 861 µM)	> 100	> 100	> 100	> 100	> 100	> 100	–
NCCCNCCCCNCCCN [Spermine]	–	–	>110	–	3.7	–	–	–	–	–	–	–	IC50 ([1]; Escherichia coli, 1 h): > 100 µM; IC50 ([2]; Pseudomonas aeruginosa, 1 h): ≥ 100 µM; CC50 ([11]; HaCaT keratinocytes): > 200 µg/mL; CC50 [11, 14]: 10 µg/mL (≈ 49.4 µM); IC50 ([5]; Enterococcus faecalis, 1 h): > 100 µM; IC50 ([6]; Enterococcus faecalis, 1 h): > 100 µM; IC50 [7, 15]: ≥ 100 µM; IC50 [8, 16]: 79 ± 24 µM; IC50 ([9]; Staphylococcus aureus, 1 h): > 100 µM; IC50 ([10]; Staphylococcus aureus, 1 h): > 100 µM
CC1(C)S[C@@H]2[C@H](NC(=O)[C@H](N)c3ccccc3)C(=O)N2[C@H]1C(=O)O [Ampicillin]	–	–	–	–	–	–	–	–	–	–	–	–	change in A260 of culture supernatant (cytoplasmic leakage), control antibiotics [12]: no increase in A260; also recorded: Significant increases in A260 were not seen; MIC of control antibiotics [13]: 32 µg/mL
NCCCCNCCCN [Spermidine]	–	–	>79	–	8.5	–	–	–	–	–	–	–	IC50 ([1]; Escherichia coli, 1 h): > 100 µM; IC50 ([2]; Pseudomonas aeruginosa, 1 h): > 100 µM; CC50 ([11]; HaCaT keratinocytes): > 150 µg/mL; CC50 [11, 14]: 22 µg/mL (≈ 151 µM); IC50 ([5]; Enterococcus faecalis, 1 h): > 100 µM; IC50 ([6]; Enterococcus faecalis, 1 h): > 100 µM; IC50 [7, 15]: > 100 µM; IC50 [8, 16]: > 100 µM; IC50 ([9]; Staphylococcus aureus, 1 h): > 100 µM; IC50 ([10]; Staphylococcus aureus, 1 h): > 100 µM
CNC(C)C1CCC(N)C(OC2C(N)CC(N)C(OC3OCC(C)(O)C(NC)C3O)C2O)O1 (stereo not shown) [gentamicin]	–	–	–	–	–	–	–	–	–	–	–	–	change in A260 of culture supernatant (cytoplasmic leakage), control antibiotics [12]: no increase in A260; also recorded: Significant increases in A260 were not seen; MIC of control antibiotics [13]: 0.5 µg/mL
N=C(NCCCN(CCCCN(CCCNC(=N)Nc1ccccc1)C(=N)Nc1ccccc1)C(=N)Nc1ccccc1)Nc1ccccc1 [Spermine-4ΦG]	23 ± 16	> 100	56	110 (≈ 163 µM)	>43	>110	> 100	> 100	≥ 100	≥ 100	> 100	–	–
N=C(NCCCCCCCCNc1nc(NCCCCCCCCN)nc(NCCCCCCCCNC(=N)Nc2ccccc2)n1)Nc1ccccc1 [TOAM-2ΦG]	0.75 ± 0.09	1.6 ± 0.4	1.6	3.1 (≈ 4.17 µM)	–	–	11 ± 3	6.1 ± 4.9	0.64 ± 0.19	0.96 ± 0.02	0.6 ± 0.32	2.4 ± 0.1	–
N=C(N)NCCCCCCNc1nc(NCCCCCCNC(=N)N)nc(NCCCCCCNC(=N)N)n1 [THAM-3G]	31 ± 12	14 ± 3	33	63 (≈ 115 µM)	29	74 (≈ 135 µM)	> 100	> 100	23 ± 14	14 ± 4	> 100	> 100	–
NCCCCCCNc1nc(NCCCCCCN)nc(NCCCCCCN)n1 [THAM]	> 100	> 100	100	200 (≈ 472 µM)	>290	>770	> 100	> 100	> 100	> 100	> 100	> 100	–
